Experiments:
Type in all cases: ADME
Cytochrome P450 3A5 = Cytochrome P450 3A5 (Homo sapiens, UniProt P20815); assay: Activity at human recombinant CYP3A5 expressed in baculovirus-infected BTI-TN-5B1-4 insect cell microsomes assessed as metabolite formation at 5 to 100 uM after 30 mins by HPLC-RA analysis; details: bti-tn-5b1-4, 0.5 h
Liver microsome = assay: Drug metabolism in human liver microsomes assessed as metabolite formation at 50 uM treated 15 mins after antibody addition measured after 20 mins by HPLC-RA analysis in presence of CYP2D6-specific monoclonal antibody
[1] = Activity at CYP4F in human liver microsomes assessed as intrinsic clearance for metabolite formation after 15 mins measured per mg protein by Eadie-Hofstee plot analysis; details: 0.25 h
Cytochrome P450 3A4 = Cytochrome P450 3A4 (Homo sapiens, UniProt P08684); assay: Activity at CYP3A4 in human liver microsomes isolated from donors assessed as metabolite formation after 24 mins by HPLC-RA analysis; details: 0.4 h
Cytochrome P450 2C19 = Cytochrome P450 2C19 (Homo sapiens, UniProt P33261); assay: Activity at human recombinant CYP2C19 expressed in baculovirus-infected BTI-TN-5B1-4 insect cell microsomes assessed as metabolite formation at 5 to 100 uM after 30 mins by HPLC-RA analysis; details: bti-tn-5b1-4, 0.5 h
Chain of Cytochrome P450 2C19 (P33261 whole entry): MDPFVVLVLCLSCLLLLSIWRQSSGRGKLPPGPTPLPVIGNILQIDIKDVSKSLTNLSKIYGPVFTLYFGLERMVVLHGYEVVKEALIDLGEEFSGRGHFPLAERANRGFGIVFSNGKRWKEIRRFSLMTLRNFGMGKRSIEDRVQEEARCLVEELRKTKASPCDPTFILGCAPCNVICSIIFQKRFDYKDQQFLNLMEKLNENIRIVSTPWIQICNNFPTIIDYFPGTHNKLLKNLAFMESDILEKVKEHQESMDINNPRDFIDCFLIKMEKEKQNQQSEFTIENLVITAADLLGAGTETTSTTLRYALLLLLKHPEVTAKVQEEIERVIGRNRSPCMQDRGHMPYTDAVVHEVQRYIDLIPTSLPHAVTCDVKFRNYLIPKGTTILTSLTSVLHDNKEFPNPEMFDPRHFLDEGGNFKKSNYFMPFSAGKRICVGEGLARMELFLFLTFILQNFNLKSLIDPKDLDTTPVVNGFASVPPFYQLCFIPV

Chain of Cytochrome P450 3A5 (P20815 whole entry): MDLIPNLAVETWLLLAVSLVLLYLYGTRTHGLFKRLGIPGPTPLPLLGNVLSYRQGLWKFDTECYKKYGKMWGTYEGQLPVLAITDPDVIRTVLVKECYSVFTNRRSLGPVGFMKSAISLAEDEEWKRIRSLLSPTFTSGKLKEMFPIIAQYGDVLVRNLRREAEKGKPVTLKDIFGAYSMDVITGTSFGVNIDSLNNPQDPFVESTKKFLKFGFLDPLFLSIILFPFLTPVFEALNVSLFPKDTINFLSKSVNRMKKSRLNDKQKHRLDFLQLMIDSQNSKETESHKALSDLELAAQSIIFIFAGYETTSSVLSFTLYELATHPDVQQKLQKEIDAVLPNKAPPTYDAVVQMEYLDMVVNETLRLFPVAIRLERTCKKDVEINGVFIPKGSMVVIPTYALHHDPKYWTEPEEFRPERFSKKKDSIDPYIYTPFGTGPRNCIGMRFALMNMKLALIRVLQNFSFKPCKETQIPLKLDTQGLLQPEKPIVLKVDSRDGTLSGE
Chain of Cytochrome P450 3A4 (P08684 whole entry): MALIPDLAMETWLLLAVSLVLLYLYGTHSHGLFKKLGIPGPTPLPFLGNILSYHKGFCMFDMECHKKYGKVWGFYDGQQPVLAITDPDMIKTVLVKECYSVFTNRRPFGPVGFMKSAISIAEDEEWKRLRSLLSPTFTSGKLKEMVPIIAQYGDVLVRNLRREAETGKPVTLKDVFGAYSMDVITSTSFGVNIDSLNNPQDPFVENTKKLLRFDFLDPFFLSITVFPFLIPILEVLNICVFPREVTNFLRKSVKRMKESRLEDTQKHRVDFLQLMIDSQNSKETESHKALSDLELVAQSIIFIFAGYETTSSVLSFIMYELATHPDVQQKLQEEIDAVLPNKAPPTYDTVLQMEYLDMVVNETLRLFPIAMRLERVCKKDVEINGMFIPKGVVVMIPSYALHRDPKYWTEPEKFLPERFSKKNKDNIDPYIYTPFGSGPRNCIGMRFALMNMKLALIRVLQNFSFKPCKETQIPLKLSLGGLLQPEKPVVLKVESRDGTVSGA

CCCCCCCCc1ccc(CC[14C](N)(CO)CO)cc1.Cl
Drug metabolism (Cytochrome P450 3A5): metabolite_not_detected | Drug metabolism (Liver microsome): metabolite_detected | CLint [1]: 10 µL/min/mg | Drug metabolism (Cytochrome P450 3A4): metabolite_not_detected | Drug metabolism (Cytochrome P450 2C19): metabolite_not_detected

From ChEMBL document CHEMBL3525920, “CYP4F enzymes are responsible for the elimination of fingolimod (FTY720), a novel treatment of relapsing multiple sclerosis” (Drug Metab Dispos, 2011)
